# Results: patent publication US5221664A, “Composition and treatment with biologically active peptides and toxic cations” (Magainin Pharmaaceuticals Inc., priority 1991, dated 1993)
# Values joined by “and” are separate entries in the source; they are usually repeats but may differ in a detail not shown here. Identical values can stand only once. Like-named read-outs stand apart in the source and are kept apart here. Ends that are not written are not given here.
# Columns and labels:
# [1] = system: P. aeruginosa strain 27853
# Description: Approximately 1-5×10^5 colony forming units (CFUs) of P. aeruginosa strain 27853, dispersed in 100 μl of Trypticase soy broth (TSB), were added to each test well. […] B13-33 peptide is of the following structure:
# The following peptide combinations were tested for Minimal Inhibitory Concentration (MIC) of the B13-33 peptide:
# The following combinations were tested for the MIC of silver nitrate:
# Approximately 1-5×10^5 CFUs of P. aeruginosa strain 27853 dispersed in 100 μl of TSB were added to each test well. […]
# [2] = system: P. aeruginosa strain 107 which was gentamicin resistant; test: Minimum Inhibitory Concentration (MIC) in TSB, test wells; format: cell-based; conditions: for MIC: agent alone, gentamicin resistant P. aeruginosa strain 107; for MIC of the peptide: P. aeruginosa strain 107
# Description: Approximately 1-5×10^5 CFUs of P. aeruginosa strain 107 which was gentamicin resistant, dispersed in 100 μl of TSB were added to each test well. […] The following combinations of Magainin II, with or without silver nitrate, were tested for Minimum Inhibitory Concentration (MIC) of Magainin II: […]
# [3] = system: clinical isolate of a methicillin resistant S. aureus (MSRA); format: cell-based; conditions: agent alone
# Description: Approximately 1-5×10^5 CFUs of a clinical isolate of a methicillin resistant S. aureus (MSRA), dispersed in 100 μl of TSB were added to each test well. […] The MIC of each peptide alone, and of silver nitrate alone was determined. The MIC of each peptide when 5 μg/ml and/or 10 μg/ml of silver nitrate was added was determined as well.
# [4] = agent alone, P. aeruginosa strain 27853
# [5] = plus 3 μg/ml silver nitrate, P. aeruginosa strain 27853
compound,measurement,setting,value
KWKLFKKIEKVGQRVRDAVISAGPAVATVAQATALAK [Cecropin A-D],MIC,[1]; [4],16 µg/mL
same,MIC of the peptide,[1]; [5],< 0.25 µg/mL
"O=[N+]([O-])[O-].[Ag+] [Silver nitrate, silver nitrate, reference compound]",MIC,[2],8 µg/mL
same,MIC,[1]; [4],4 to 8 µg/mL and 8 µg/mL
same,MIC,"[1]; agent alone, P. aeruginosa strain 27853, listed as silver nitrate",2 to 8 µg/mL
same,MIC of silver nitrate,"[1]; plus 1.6 μg/ml B13-33 peptide, P. aeruginosa strain 27853",2 to 8 µg/mL
same,MIC of silver nitrate,"[1]; plus 5 μg/ml B13-33 peptide, P. aeruginosa strain 27853",< 0.25 µg/mL
same,MIC of silver nitrate,"[1]; plus 5 μg/ml B13-33 peptide, P. aeruginosa strain 27853, listed as silver nitrate",less than 0.25 μg/ml
same,MIC,[3],16 µg/mL
GIGKFLKKAKKFGKAFVKIMKK [B13-33 peptide],MIC,[1]; strain 27853,4 to 16 µg/mL
GIGKFLHSAKKFGKAFVGEIMNS-NH2 [Magainin II],MIC,[2],256 µg/mL
same,MIC of the peptide,[2]; plus 1 μg/ml silver nitrate,32 µg/mL
same,MIC of the peptide,[2]; plus 2 μg/ml silver nitrate,16 µg/mL
same,MIC of the peptide,[2]; plus 3 μg/ml silver nitrate,16 µg/mL
same,MIC of the peptide,[2]; plus 4 μg/ml silver nitrate,4 µg/mL
same,MIC of the peptide,[2]; plus 5 μg/ml silver nitrate,< 0.03 µg/mL
same,MIC of the peptide,"[1]; plus 1 μg/ml silver nitrate, P. aeruginosa strain 27853",32 µg/mL
same,MIC of the peptide,"[1]; plus 2 μg/ml silver nitrate, P. aeruginosa strain 27853",16 µg/mL
same,MIC of the peptide,[1]; [5],8 µg/mL
same,MIC of the peptide,"[1]; plus 4 μg/ml silver nitrate, P. aeruginosa strain 27853",< 0.03 µg/mL
